Earlier results in patent publication US20050272712A1, “Compositions and methods for treatment of premenstrual dysphoric disorder” (Wyeth, priority 2004, published 2005).

Conditions: daily dose of either 20 mg or 60 mg; Steiner et al. 1995

## CNCCC(Oc1ccc(C(F)(F)F)cc1)c1ccccc1 (stereo not shown) [fluoxetine]
  reduction of symptoms versus placebo: superior to placebo in reducing symptoms
